# Laboratory results as given in US8076059B2 (priority 2003, dated 2011).
# Tests used:
# Parameters in all cases: species or system mice
# Conditions in all cases: mouse, in vivo
# peripheral mast cells = system: peripheral mast cells
# anti-PA IgG = system: anti-PA IgG
# CD4 T-cells = system: CD4 T-cells
substance,measurement,setting,value
TNF-α,lymph node hypertrophy after direct injection into footpads,peripheral mast cells,marked lymph node hypertrophy
same,time of maximal lymph node growth,peripheral mast cells,48 h
cholera toxin [CT],"adjuvant activity, serum anti-PA IgG by ELISA on day 175",anti-PA IgG,significant adjuvant activity over PA alone
same,"adjuvant activity, serum anti-PA IgG geometric mean titers",anti-PA IgG,significant adjuvant activity at all doses tested
pertussis toxin,T-cell recruitment to draining lymph nodes after T-cell pretreatment,CD4 T-cells,inhibited T-cell recruitment to draining lymph nodes
